Laboratory results taken from patent publication US12144864B2, “Tubulysins and protein-tubulysin conjugates” (Regeneron Pharmaceuticals, Inc., priority 2018, dated 2024).
Read-outs that look alike come from different tables or passages of the source.

How the values were obtained:
C4-2 cells [1] = test: Cytotoxicity of anti-STEAP2 ADCs, payloads and reference compounds in C4-2 cells; type: cell-based, human
Method: (§1) To test the ability of the disclosed tubulysin payloads to kill human cell lines, an in vitro cytotoxicity assay was performed. In vitro cytotoxicity of the disclosed payloads, as well as reference compounds, were evaluated using the CellTiter-Glo Assay Kit (Promega, Cat #G7573), in which the quantity of ATP present is used to determine the number of viable cells in culture. For the assay, C4-2, HEK293, or T47D cells were seeded at 4000 cells/well on Nunclon white 96-well plates in complete growth medium (DME high glucose:Ham's F12 at 4:1, 10% FBS, 100 units/ml Penicillin, 100 ug/ml streptomycin, 53 ug/ml glutatmine, 10 ug/ml insulin, 220 ng/ml biotin, 12.5 pg/ml T3, 12.5 ug/ml Adenine, 4 ug/ml transferrin for C42 cells; DME high glucose, 10% FBS, 100 units/ml Penicillin, 100 ug/ml streptomycin, 53 ug/ml glutatmine for HEK293; RPMI, 10% FBS, 100 units/ml Penicillin, 100 ug/ml streptomycin, 53 ug/ml glutatmine, 10 ug/ml insulin, 10 mM HEPEs, 200 nM Sodium Pyruvate for T47D cells) and grown overnight at 37° C. in 5% CO2. For cell viability curves, 1:3 serially diluted payloads were added to the cells at final concentrations ranging from 100 nM to […], including a no treatment control group, and were then incubated for 5 days. After the 5-day incubation, cells were incubated at room temperature with 100 μL of CellTiter-Glo reagents for 10 minutes. Relative luminescence units (RLU) were determined on a Victor plate reader (PerkinElmer). The IC50 values were determined from a four-parameter logistic equation over a 10-point response curve (GraphPad Prism). All IC50 values are expressed in molar (M) concentration. The percent cell killing (% kill) at the maximum concentration tested was estimated from the following formula (100−% viable cells). Averages±standard deviation (SD) are included where replicate experiments were performed.
To further test the ability of the disclosed tubulysin payloads, reference compounds, and antibody drug conjugates using these payloads, a cytotoxicity assay was performed using C4-2 cells as described in this example (see above). For these studies, anti-STEAP2 antibodies were conjugated to select tubulysins payloads, and the compounds were tested at concentrations starting at 100 nM with 3-fold serial dilution. All IC50 values are expressed in nM concentration and the percent cell killing at the maximum concentration tested was estimated from the following formula (100−% viable cells).

HCT-15 cells = test: Cytotoxicity in panel of MDR cell lines, HCT-15 (72 h and 144 h); type: cell-based, human; details: for IC50: Homo sapiens
In short: (§2)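 MDR lines were seeded at 1000 cells/well in their normal growth media: RPMI/10% FBS for HCT-15 and HL60/MX2, RPMI/20% FBS for H69AR, and Waymouth's:McCoy's 1:1 with 10% FBS for MES-SA/MX2. Cells were exposed to 1:3 serially diluted payloads for 72 h or 144 h, and viability was read by CellTiter-Glo ATP luminescence. IC50 came from a four-parameter logistic fit; % kill at top concentration = 100 − % viable.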

T47D cells = test: Cell-based killing assay of payloads (CellTiter-Glo), T47D cells; set-up: species or system human; details: 5-day incubation
In short: (§3)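 Cells plated at 4000/well in line-specific complete medium, grown overnight, then exposed to 1:3 serial dilutions of payload (100 nM to […]) for 5 days. ATP-based CellTiter-Glo luminescence read; IC50 from four-parameter logistic 10-point fit, and % kill at top concentration as 100 − % viable.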

H69AR cells = test: Cytotoxicity in panel of MDR cell lines, H69AR (72 h and 144 h); type: cell-based, human; details: for IC50: Homo sapiens
In short: as §2

HCT15/PRLR cells = test: Cytotoxicity of anti-PRLR tubulysin ADCs and payloads in HCT15/PRLR cells with or without Verapamil; type: cell-based, human; details: for IC50: Homo sapiens, HCT-15
Method: as §1
Bioassays were developed to assess the efficacy of an anti-PRLR antibody conjugated with the disclosed tubulysin payloads and reference payloads. It was developed to assess the activity of tubulysin payloads after internalization of an anti-PRLR-tubulysin ADC into cells, release of the payload, and subsequent cytotoxicity. For this assay, a HCT15 line was engineered to express human full length PRLR (accession #NP_000940.1). The resulting stable cell line is referred to herein as HCT15/PRLR. In vitro cytotoxicity of the disclosed payloads, reference compounds, and tested ADCs were evaluated similarly as described in this example using HCT15/PRLR cells with or without […] of Verapamil diluted in normal culture medium. The compounds were tested at concentrations starting at 100 nM with 3-fold serial dilution. All IC50 values are expressed in nM concentration and the percent cell killing (% kill) at the maximum concentration tested was estimated from the following formula (100−% viable cells).

C4-2 cells [2] = test: Cell-based killing assay of payloads (CellTiter-Glo), C4-2 cells; set-up: species or system human; details: 5-day incubation
In short: as §3

MES-SA/MX2 cells = test: Cytotoxicity in panel of MDR cell lines, MES-SA/MX2 (72 h and 144 h); type: cell-based, human; details: for IC50: Homo sapiens
In short: as §2

HEK293 cells = test: Cell-based killing assay of payloads (CellTiter-Glo), HEK293 cells; set-up: species or system human; details: 5-day incubation
In short: as §3

HL60/MX2 cells = test: Cytotoxicity in panel of MDR cell lines, HL60/MX2 (72 h and 144 h); type: cell-based, human; details: for IC50: Homo sapiens
In short: as §2

HCT15 cells = test: cells; type: cell-based, human; details: HCT15 cells
In short: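 HCT15 colorectal carcinoma cells, 1000 per well in RPMI/10% FBS, with or without 5 ug/mL verapamil, exposed to 1:3 serially diluted payloads for 5 days at 37 °C. Viability measured by CellTiter-Glo ATP luminescence; IC50 from four-parameter logistic fit of a 10-point curve, % kill at top concentration.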

[3] = at maximum concentration tested

C#CCCCCN(C(=O)[C@@H](NC(=O)[C@H]1CCCCN1C)[C@@H](C)CC)[C@H](C[C@@H](OC(C)=O)c1nc(C(=O)N[C@@H](Cc2ccc(N)cc2)CC(C)(C)C(=O)O)cs1)C(C)C [IVd, (4S)-4-({2-[(1R,3R)-1-(Acetyloxy)-3-[(2S,3S)—N-(hex-5-yn-1-yl)-3-methyl-2-{[(2R)-1-methylpiperidin-2-yl]formamido}pentanamido]-4-methylpentyl]-1,3-thiazol-4-yl}formamido)-5-(4-aminophenyl)-2,2-dimethylpentanoic acid]
IC50 (C4-2 cells [1]; Homo sapiens, top concentration 100 nM, 3-fold serial dilution): 0.022 nM
% kill (C4-2 cells [1]; [3]): 99%
HCT-15 % Kill 72 h (HCT-15 cells; 72 h incubation): 97.6%
HCT-15 % Kill 144 h (HCT-15 cells; 144 h incubation): 99.7%
IC50 (HCT-15 cells; 72 h incubation, read-out: HCT-15 IC50 72 h): 0.00888 nM
IC50 (HCT-15 cells; 144 h incubation, read-out: HCT-15 IC50 144 h): 0.0295 nM
IC50 (T47D cells; Homo sapiens, T47D, 120 h): 0.035 nM
T47D % Kill (T47D cells; [3]): 84.5%
H69AR % Kill 72 h (H69AR cells; 72 h incubation): 96.9%
H69AR % Kill 144 h (H69AR cells; 144 h incubation): 99.5%
IC50 (H69AR cells; 72 h incubation, read-out: H69AR IC50 72 h): 0.0564 nM
IC50 (H69AR cells; 144 h incubation, read-out: H69AR IC50 144 h): 0.133 nM
IC50 (HCT15/PRLR cells; with Verapamil, read-out: IC50 (nM) on HCT15/PRLR w/ Verapamil): 0.015 nM
IC50 (HCT15/PRLR cells; without Verapamil, read-out: IC50 (nM) on HCT15/PRLR w/o Verapamil): 0.037 nM
% kill on HCT15/PRLR w/ Verapamil (HCT15/PRLR cells; with Verapamil, at maximum concentration tested): 99%
% kill on HCT15/PRLR w/o Verapamil (HCT15/PRLR cells; without Verapamil, at maximum concentration tested): 99%
IC50 (C4-2 cells [2]; Homo sapiens, C4-2, 120 h, average ± SD where replicates): 0.0164 nM
C4-2 % Kill (C4-2 cells [2]; at maximum concentration tested (100 − % viable cells)): 93.7 ± 1.8%
MES-SA/MX2 % Kill 72 h (MES-SA/MX2 cells; 72 h incubation): 99.5%
MES-SA/MX2 % Kill 144 h (MES-SA/MX2 cells; 144 h incubation): 100%
IC50 (MES-SA/MX2 cells; 72 h incubation, read-out: MES-SA/MX2 IC50 72 h): 0.0541 nM
IC50 (MES-SA/MX2 cells; 144 h incubation, read-out: MES-SA/MX2 IC50 144 h): 0.13 nM
IC50 (HEK293 cells; Homo sapiens, HEK293, 120 h): 0.0572 nM
HEK293 % Kill (HEK293 cells; [3]): 85.4%
HL60/MX2 % Kill 72 h (HL60/MX2 cells; 72 h incubation): 98.6%
HL60/MX2 % Kill 144 h (HL60/MX2 cells; 144 h incubation): 99.9%
IC50 (HL60/MX2 cells; 72 h incubation, read-out: HL60/MX2 IC50 72 h): < 0.015 nM
IC50 (HL60/MX2 cells; 144 h incubation, read-out: HL60/MX2 IC50 144 h): < 0.015 nM
HCT-15 + verapamil % Kill (HCT15 cells; with 5 ug/mL Verapamil, maximum % cell killing): 97.7 ± 1.8%
IC50 (HCT15 cells; with 5 ug/mL Verapamil, read-out: HCT-15 + verapamil IC50): 0.0407 nM
HCT-15 % Kill (HCT15 cells; without Verapamil, maximum % cell killing): 98.2 ± 0.5%
IC50 (HCT15 cells; Homo sapiens, HCT-15, without Verapamil, read-out: HCT-15 IC50): 0.057 nM
